Assay results taken from PubChem BioAssay (NCI).
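Following 48 hours of exposure in 96-well plates, responses at five concentrations were used to interpolate endpoints linearly. GI50 marks 50% less growth. TGI denotes the concentration required for complete inhibition of growth.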

What was measured:
Test in all cases: inhibition of tumour cell growth, NCI panel, 48 h
CCRF-CEM leukemia = system: CCRF-CEM leukemia
EKVX NSCLC = system: EKVX NSCLC
NCI-H226 lung = system: NCI-H226 lung
OVCAR-4 ovarian = system: OVCAR-4 ovarian
SF-295 CNS = system: SF-295 CNS
SF-539 CNS = system: SF-539 CNS
SNB-19 CNS = system: SNB-19 CNS
U251 CNS = system: U251 CNS
UACC-257 melanoma = system: UACC-257 melanoma
UACC-62 melanoma = system: UACC-62 melanoma

SMILES | GI50 (CCRF-CEM leukemia) [µM] | TGI (CCRF-CEM leukemia) [µM] | GI50 (EKVX NSCLC) [µM] | TGI (EKVX NSCLC) [µM] | GI50 (NCI-H226 lung) [µM] | TGI (NCI-H226 lung) [µM] | GI50 (OVCAR-4 ovarian) [µM] | TGI (OVCAR-4 ovarian) [µM] | GI50 (SF-295 CNS) [µM] | TGI (SF-295 CNS) [µM] | GI50 (SF-539 CNS) [µM] | TGI (SF-539 CNS) [µM] | GI50 (SNB-19 CNS) [µM] | TGI (SNB-19 CNS) [µM] | GI50 (U251 CNS) [µM] | TGI (U251 CNS) [µM] | GI50 (UACC-257 melanoma) [µM] | TGI (UACC-257 melanoma) [µM] | GI50 (UACC-62 melanoma) [µM] | TGI (UACC-62 melanoma) [µM]
O=C1C(=C([O-])c2ccccc2)C(=O)c2ccccc21.O=C1C(=C([O-])c2ccccc2)C(=O)c2ccccc21.[Ni+2] | 54.7 | > 100 | 44.4 | > 100 | 4.68 | 63.5 | 61.6 | > 100 | 41.4 | > 100 | 59.2 | > 100 | 58.8 | > 100 | 34.5 | > 100 | 83.3 | > 100 | 36.8 | > 100
COc1cc(O)c(Cc2ccccc2O)c(O)c1C(=O)CCc1ccccc1 |  | 22.5 |  | 22.5 |  | 32 |  | 18.5 |  | 16.1 |  | 15.7 |  | 26.4 |  | 14.5 |  | 16.1 |  | 19.1
COC(=O)c1c(O)ccc2c1c1c(n2Cc2cccc(C)c2)C(=O)c2ccccc2C1 |  | 36.8 |  | 10.4 |  | > 75 |  | 25.3 |  | > 75 |  | 61.4 |  | > 75 |  | 66.1 |  | > 75 |  | > 75
